Patent publication US10093630B2, “Pyrazole compounds and methods of making and using same” (ABIDE THERAPEUTICS, INC., priority 2014, dated 2018)

Columns and labels:
Test in all cases: In vitro competitive activity-based protein profiling (gel-based, FP-Rh or HT-01 probe)
Assay type in all cases: biochemical
FAAH = molecular target: T1, FAAH (Mus musculus, UniProt O08914); details: for inhibition at 1 µM: 1 μM inhibitor, read-out: % Inhibition at 1 μM, B = FAAH; for inhibition at 10 µM: 10 μM inhibitor, read-out: % Inhibition at 10 μM, B = FAAH; for IC50: mouse brain membrane fraction or cell lysates, 30 min preincubation at 37° C., read-out: Mouse (IC50 value, nM) FAAH
T1 construct: Proteomes (mouse brain membrane fraction or cell lysates); from tissue; host or cells: mouse brain membrane fraction (or cell lysates, not specified)
T1 sequence (O08914 1-579): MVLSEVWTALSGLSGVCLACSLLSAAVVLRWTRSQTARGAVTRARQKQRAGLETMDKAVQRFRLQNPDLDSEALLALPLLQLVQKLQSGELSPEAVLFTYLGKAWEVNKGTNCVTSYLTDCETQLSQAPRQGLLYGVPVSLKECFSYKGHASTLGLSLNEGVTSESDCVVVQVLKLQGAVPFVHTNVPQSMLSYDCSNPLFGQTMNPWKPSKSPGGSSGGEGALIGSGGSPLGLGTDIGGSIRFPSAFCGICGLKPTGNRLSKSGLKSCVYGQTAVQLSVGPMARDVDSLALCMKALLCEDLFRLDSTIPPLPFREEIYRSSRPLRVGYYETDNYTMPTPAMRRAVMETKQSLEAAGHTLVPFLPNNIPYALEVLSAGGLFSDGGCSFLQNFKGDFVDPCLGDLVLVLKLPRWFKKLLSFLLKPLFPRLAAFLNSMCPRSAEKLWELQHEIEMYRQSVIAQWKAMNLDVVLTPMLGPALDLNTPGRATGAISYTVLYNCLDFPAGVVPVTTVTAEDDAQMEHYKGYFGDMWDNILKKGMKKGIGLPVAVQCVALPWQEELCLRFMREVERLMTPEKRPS
Method in brief: (§1)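 Read-out: fluorescent band intensity on SDS-PAGE gels, reporting remaining serine hydrolase activity. Before that, proteome (mouse brain membranes or cell lysates, 1.0 mg/mL) saw a range of inhibitor concentrations for 30 min at 37° C, followed by 30 min probe labelling (FP-Rh or HT-01).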

PLA2G7 = molecular target: T2, PLA2G7 (Mus musculus, UniProt Q60963); details: for inhibition at 1 µM: 1 μM inhibitor, read-out: % Inhibition at 1 μM, D = PLA2G7; for inhibition at 10 µM: 10 μM inhibitor, read-out: % Inhibition at 10 μM, D = PLA2G7; for IC50: mouse brain membrane fraction or cell lysates, 30 min preincubation at 37° C.
T2 construct: Proteomes (mouse brain membrane fraction or cell lysates); from tissue; host or cells: mouse brain membrane fraction (or cell lysates, not specified)
T2 sequence (Q60963 22-440): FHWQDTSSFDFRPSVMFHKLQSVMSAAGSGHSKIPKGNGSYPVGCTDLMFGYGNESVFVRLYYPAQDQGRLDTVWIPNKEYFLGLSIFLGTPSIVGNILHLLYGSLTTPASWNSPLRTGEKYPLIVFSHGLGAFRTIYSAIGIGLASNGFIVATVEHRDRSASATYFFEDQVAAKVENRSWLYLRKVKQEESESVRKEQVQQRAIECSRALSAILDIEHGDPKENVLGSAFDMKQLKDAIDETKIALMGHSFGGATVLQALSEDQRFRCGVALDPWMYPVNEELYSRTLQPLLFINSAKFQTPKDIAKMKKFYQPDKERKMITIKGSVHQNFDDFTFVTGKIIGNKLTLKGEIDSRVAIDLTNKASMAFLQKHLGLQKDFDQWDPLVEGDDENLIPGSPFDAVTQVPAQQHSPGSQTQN
Method in brief: as §1

MAGL = molecular target: T3, MAGL (Mus musculus, UniProt O35678); details: for inhibition at 1 µM: 1 μM inhibitor; for inhibition at 10 µM: 10 μM inhibitor; for IC50: mouse brain membrane fraction or cell lysates, 30 min preincubation at 37° C., read-out: Mouse (IC50 value, nM) MAGL
T3 construct: Proteomes (mouse brain membrane fraction or cell lysates); from tissue; host or cells: mouse brain membrane fraction (or cell lysates, not specified)
T3 sequence (O35678 1-303): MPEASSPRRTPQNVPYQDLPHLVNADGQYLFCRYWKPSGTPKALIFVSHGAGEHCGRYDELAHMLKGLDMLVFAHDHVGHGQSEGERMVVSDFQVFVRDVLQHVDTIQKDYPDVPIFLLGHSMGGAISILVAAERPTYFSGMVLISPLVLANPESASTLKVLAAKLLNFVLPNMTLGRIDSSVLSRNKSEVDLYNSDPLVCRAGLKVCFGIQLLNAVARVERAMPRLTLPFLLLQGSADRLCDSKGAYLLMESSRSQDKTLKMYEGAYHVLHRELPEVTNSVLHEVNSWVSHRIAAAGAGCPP
Method in brief: as §1

ABHD6 = molecular target: T4, ABHD6 (Mus musculus, UniProt Q8R2Y0); details: for inhibition at 1 µM: 1 μM inhibitor, read-out: % Inhibition at 1 μM, C = ABHD6; for inhibition at 10 µM: 10 μM inhibitor, read-out: % Inhibition at 10 μM, C = ABHD6; for IC50: mouse brain membrane fraction or cell lysates, 30 min preincubation at 37° C., read-out: Mouse (IC50 value, nM) ABHD6
T4 construct: Proteomes (mouse brain membrane fraction or cell lysates); from tissue; host or cells: mouse brain membrane fraction (or cell lysates, not specified)
T4 sequence (Q8R2Y0 1-336): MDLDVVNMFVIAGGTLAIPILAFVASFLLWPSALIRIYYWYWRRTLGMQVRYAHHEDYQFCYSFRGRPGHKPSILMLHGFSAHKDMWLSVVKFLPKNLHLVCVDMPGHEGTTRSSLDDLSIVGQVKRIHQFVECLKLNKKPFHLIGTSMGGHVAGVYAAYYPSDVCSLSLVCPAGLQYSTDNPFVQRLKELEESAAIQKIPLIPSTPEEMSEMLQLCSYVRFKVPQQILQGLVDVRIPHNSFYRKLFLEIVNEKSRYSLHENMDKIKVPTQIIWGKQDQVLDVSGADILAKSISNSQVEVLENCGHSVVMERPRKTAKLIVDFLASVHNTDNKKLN
Method in brief: as §1

Row | Compound | inhibition at 1 µM (FAAH) [%] | inhibition at 10 µM (FAAH) [%] | inhibition at 1 µM (PLA2G7) [%] | inhibition at 10 µM (PLA2G7) [%] | inhibition at 1 µM (MAGL) [%] | inhibition at 10 µM (MAGL) [%] | inhibition at 1 µM (ABHD6) [%] | inhibition at 10 µM (ABHD6) [%] | IC50 (FAAH) [nM] | IC50 (PLA2G7) [nM] | IC50 (MAGL) [nM] | IC50 (ABHD6) [nM]
1 | CS(=O)(=O)N1CCN(C(=O)n2cc(C#N)cn2)CC1 [Example 174, 1-(4-(Methylsulfonyl)piperazine-1-carbonyl)-1H-pyrazole-4-carbonitrile] | < 25 | 25 to 75 | > 75 | > 75 | < 25 | 25 to 75 | > 75 | > 75 | – | – | – | –
2 | CN1CCN(C(=O)n2cc(C#N)cn2)CC1 [Example 175, 1-(4-Methylpiperazine-1-carbonyl)-1H-pyrazole-4-carbonitrile] | 25 to 75 | > 75 | < 25 | > 75 | 25 to 75 | > 75 | > 75 | > 75 | – | – | – | –
3 | N#Cc1cnn(C(=O)N2CCN(C(=O)c3ccccc3)CC2)c1 [Example 176, 1-(4-Benzoylpiperazine-1-carbonyl)-1H-pyrazole-4-carbonitrile] | < 25 | 25 to 75 | > 75 | > 75 | > 75 | > 75 | < 25 | > 75 | – | – | – | –
4 | CC(=O)N1CCCN(C(=O)n2cc(C#N)cn2)CC1 [Example 177, 1-(4-Acetyl-1,4-diazepane-1-carbonyl)-1H-pyrazole-4-carbonitrile] | < 25 | > 75 | < 25 | > 75 | < 25 | < 25 | < 25 | > 75 | – | – | – | –
5 | CS(=O)(=O)N1CCCN(C(=O)n2cc(C#N)cn2)CC1 [Example 178, 1-(4-(methylsulfonyl)-1,4-diazepane-1-carbonyl)-1H-pyrazole-4-carbonitrile] | < 25 | > 75 | < 25 | 25 to 75 | < 25 | > 75 | < 25 | > 75 | – | – | – | –
6 | N#Cc1cnn(C(=O)N2CCCN(Cc3ccccc3)CC2)c1 [Example 179, 1-(4-Benzyl-1,4-diazepane-1-carbonyl)-1H-pyrazole-4-carbonitrile] | > 75 | > 75 | < 25 | > 75 | > 75 | > 75 | > 75 | > 75 | < 100 | > 1000 | > 1000 | > 1000
7 | N#Cc1cnn(C(=O)N2CCCN(C(=O)c3ccccc3)CC2)c1 [Example 180, 1-(4-Benzoyl-1,4-diazepane-1-carbonyl)-1H-pyrazole-4-carbonitrile] | > 75 | > 75 | < 25 | > 75 | > 75 | > 75 | > 75 | > 75 | 100 to 1000 | > 1000 | 100 to 1000 | > 1000
8 | CC(=O)N(C)CCN(C)C(=O)n1cc(C#N)cn1 [Example 181, 4-Cyano-N-methyl-N-(2-(N-methylacetamido)ethyl)-1H-pyrazole-1-carboxamide] | < 25 | > 75 | < 25 | > 75 | < 25 | < 25 | < 25 | > 75 | – | – | – | –
9 | CN(CCN(C)C(=O)n1cc(C#N)cn1)C(=O)c1ccccc1 [Example 182, 4-Cyano-N-methyl-N-(2-(N-methylbenzamido)ethyl)-1H-pyrazole-1-carboxamide] | > 75 | > 75 | < 25 | > 75 | < 25 | > 75 | < 25 | > 75 | – | – | – | –
